For this assay, the system named is BDF1 mice, P388 leukemia ip, median survival T/C. Nature of the assay: NCI In Vivo Anticancer Drug Screen. Data for tumor model P388 Leukemia (intraperitoneal) in B6D2F1 (BDF1) mice. Conditions: endpoint: median survival time, higher = longer survival. The procedure, abridged: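 Steps: implant the tumour, treat one group with compound and another with vehicle, record survival, then divide treated by control.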

Setting [1] is: dose: 50.0 mg/kg/injection, schedule: Q01DX009 (ip), vehicle: saline with Tween-80.
[2] abbreviates: dose: 100.0 mg/kg/injection, schedule: Q01DX009 (ip), vehicle: saline with Tween-80.
Where [3] appears, read: dose: 200.0 mg/kg/injection, schedule: Q01DX009 (ip), vehicle: saline with Tween-80.
The mark [4] stands for this setting: dose: 100.0 mg/kg/injection, schedule: Q04DX003 (ip), vehicle: saline.
[5] abbreviates: dose: 200.0 mg/kg/injection, schedule: Q04DX003 (ip), vehicle: saline.
Setting [6] is: dose: 400.0 mg/kg/injection, schedule: Q04DX003 (ip), vehicle: saline.
Where [7] appears, read: dose: 25.0 mg/kg/injection, schedule: Q01DX009 (ip), vehicle: saline with Tween-80.
Where [8] appears, read: dose: 100.0 mg/kg/injection, schedule: Q01DX009 (ip), vehicle: Klucel (hydroxypropylcellulose) (HPC).
Where [9] appears, read: dose: 200.0 mg/kg/injection, schedule: Q01DX009 (ip), vehicle: Klucel (hydroxypropylcellulose) (HPC).

Each structure is given as a SMILES string. Several values for one entry are separate records, joined by “and”; a condition that tells them apart may be missing. Equal entries are not always repeated. Toxic doses and inconclusive results are not listed. Non-standard residues stand in square brackets, D forms with d. Residues, ends and D or L forms follow the SMILES beside them. ξ: configuration not given here. *: point of attachment. Cbz = O=C(OCc1ccccc1)*; ξK = NCCCCC(N)C(=O)O

As to `CCCCNC(C)(C)COC(=O)/C=C/c1ccc(OCCCC)cc1`, the T/C is 100 % of control (dose: 6.25 mg/kg/injection, schedule: Q01DX010 (ip), vehicle: saline); 100 % of control (dose: 12.5 mg/kg/injection, schedule: Q01DX010 (ip), vehicle: saline); 113 % of control (dose: 25.0 mg/kg/injection, schedule: Q01DX010 (ip), vehicle: saline); 100 % of control (dose: 50.0 mg/kg/injection, schedule: Q01DX010 (ip), vehicle: saline).
Take `COc1ccc(/C=N/Nc2nc3ccc4ccccc4c3s2)cc1`: the T/C was 90 % of control under setting [1], 101 % of control under setting [2] and 115 % of control under setting [3].
Turning to `CC(=O)NC(CCCCNC(=O)OCc1ccccc1)C(=O)NCC(=O)O` (stereo not drawn) (Ac-[ξK](Cbz)-Gly-OH), the T/C is, setting by setting: (dose: 50.0 mg/kg/injection, schedule: Q01DX005 (ip), vehicle: saline with Tween-80) 93 % of control; (dose: 100.0 mg/kg/injection, schedule: Q01DX005 (ip), vehicle: saline with Tween-80) 105 % of control; (dose: 200.0 mg/kg/injection, schedule: Q01DX005 (ip), vehicle: saline with Tween-80) 100 % of control.
`O=C1C=C(C2CCCCC2)C(=O)C2CCCCC12` (stereo not drawn): the T/C was 110 % of control under setting [4], 105 % of control under setting [5] and 120 % of control under setting [6].
`C[Si](C)(OC(=O)N(CCCl)CCCl)O[Si](C)(C)OC(=O)N(CCCl)CCCl`: the T/C is, setting by setting: (dose: 6.25 mg/kg/injection, schedule: Q01DX009 (ip), vehicle: saline with Tween-80) 110 % of control; under setting [7], 185 % of control; under setting [1], 208 % of control.
For the compound `CCOC(=O)CCSCC(C)(C)C(=O)OCC`, the T/C under setting [4] was 90 % of control, the T/C under setting [5] was 100 % of control and the T/C under setting [6] is 95 % of control.
As to `C[N+](C)(Cc1ccccc1)CC(O)COc1ccccc1` (stereo not drawn), the T/C (dose: 12.5 mg/kg/injection, schedule: Q01DX009 (ip), vehicle: saline with Tween-80) was 96 % of control; the T/C (dose: 12.5 mg/kg/injection, schedule: Q04DX003 (ip), vehicle: saline with Tween-80) is 118 % of control; the T/C under setting [7] was 103 % of control; the T/C (dose: 25.0 mg/kg/injection, schedule: Q04DX003 (ip), vehicle: saline with Tween-80) is 113 % of control; the T/C (dose: 50.0 mg/kg/injection, schedule: Q04DX003 (ip), vehicle: saline with Tween-80) was 104 % of control.
For the compound `CCCNC(=O)OCC#CC#CCOC(=O)NCCC`, the T/C was 86 % of control under setting [8]; 90 % of control (dose: 100.0 mg/kg/injection, schedule: Q04DX003 (ip), vehicle: Klucel (hydroxypropylcellulose) (HPC)); 100 % of control under setting [9]; 95 % of control (dose: 200.0 mg/kg/injection, schedule: Q04DX003 (ip), vehicle: Klucel (hydroxypropylcellulose) (HPC)); 104 % of control (dose: 400.0 mg/kg/injection, schedule: Q01DX009 (ip), vehicle: Klucel (hydroxypropylcellulose) (HPC)); 113 % of control (dose: 400.0 mg/kg/injection, schedule: Q04DX003 (ip), vehicle: Klucel (hydroxypropylcellulose) (HPC)).
In the case of `C=CCOC(=O)C1c2ccccc2Cc2ccccc21`, the T/C under setting [2] is 110 % of control; the T/C (dose: 100.0 mg/kg/injection, schedule: Q04DX003 (ip), vehicle: saline with Tween-80) was 100 % of control; the T/C under setting [3] was 115 % of control; the T/C (dose: 200.0 mg/kg/injection, schedule: Q04DX003 (ip), vehicle: saline with Tween-80) was 100 % of control; the T/C (dose: 400.0 mg/kg/injection, schedule: Q01DX009 (ip), vehicle: saline with Tween-80) was 110 % of control; the T/C (dose: 400.0 mg/kg/injection, schedule: Q04DX003 (ip), vehicle: saline with Tween-80) is 109 % of control.
Turning to `O=C(O)c1ccccc1C(=O)O` (tested in a mixture with another compound), the T/C was 89 % of control (dose: 50.0 mg/kg/injection, schedule: Q01DX009 (ip), vehicle: Klucel (hydroxypropylcellulose) (HPC)); 91 % of control under setting [8]; 96 % of control under setting [9].
As to `CNC(=O)c1ccccc1Sc1ccccc1`, the T/C under setting [1] is 104 % of control, the T/C under setting [2] is 98 % of control and the T/C under setting [3] was 106 % of control.
Take `Nc1ccccc1.[C-]#[O+].[C-]#[O+].[C-]#[O+].[C-]#[O+].[C-]#[O+].[Cr]`: the T/C (dose: 2.5 mg/kg/injection, schedule: Q01DX009 (ip), vehicle: saline) is 91 % of control and the T/C (dose: 5.0 mg/kg/injection, schedule: Q01DX009 (ip), vehicle: saline) was 101 % of control.
As to `COc1ccc(C(O)(CS(C)(=O)=O)c2cccs2)cc1` (stereo not drawn), the T/C runs as follows: under setting [1], 110 % of control; under setting [2], 110 % of control; under setting [3], 103 % of control.
Take `O=C(/C=C/c1ccncc1)c1ccccc1`: the T/C is, setting by setting: (dose: 100.0 mg/kg/injection, schedule: Q01DX001 (ip), vehicle: saline with Tween-80) 122 % of control; (dose: 200.0 mg/kg/injection, schedule: Q01DX001 (ip), vehicle: saline with Tween-80) 113 % of control.
In the case of `C[n+]1ccc2cc(-c3ccccc3)c3ccccc3c2c1`, the T/C (dose: 0.06 mg/kg/injection, schedule: Q01DX009 (ip), vehicle: water) is 100 % of control; the T/C (dose: 0.12 mg/kg/injection, schedule: Q01DX009 (ip), vehicle: water) is 88 % of control; the T/C (dose: 0.25 mg/kg/injection, schedule: Q01DX009 (ip), vehicle: water) was 89 % of control; the T/C (dose: 0.5 mg/kg/injection, schedule: Q01DX009 (ip), vehicle: water) is 100 % of control; the T/C (dose: 1.0 mg/kg/injection, schedule: Q01DX009 (ip), vehicle: water) is 100 % of control and 101 % of control; the T/C (dose: 2.0 mg/kg/injection, schedule: Q01DX009 (ip), vehicle: water) is 101 % of control. Under “dose: 4.0 mg/kg/injection, schedule: Q01DX009 (ip), vehicle: water”, the T/C was 99 % of control.
For `CC1CNCC(C)N1C(=O)c1ccccc1` (stereo not drawn), the T/C reads like this: (dose: 0.1 mg/kg/injection, schedule: Q01DX009 (ip), vehicle: water) 96 % of control; (dose: 0.2 mg/kg/injection, schedule: Q01DX009 (ip), vehicle: water) 105 % of control; (dose: 0.4 mg/kg/injection, schedule: Q01DX009 (ip), vehicle: water) 115 % of control; (dose: 0.78 mg/kg/injection, schedule: Q04DX003 (ip), vehicle: water) 97 % of control; (dose: 1.56 mg/kg/injection, schedule: Q04DX003 (ip), vehicle: water) 104 % of control; (dose: 3.12 mg/kg/injection, schedule: Q04DX003 (ip), vehicle: water) 104 % of control. Further, the T/C (dose: 6.25 mg/kg/injection, schedule: Q04DX003 (ip), vehicle: water) was 88 % of control.

Values taken from PubChem BioAssay AID328 (DTP/NCI, 2004).
